ChEMBL document CHEMBL5465560, “Selectivity Literature for EUbOPEN Chemogenomic Library” (2024)

Key:
[1] = target: Bromodomain-containing protein 4 (Homo sapiens, UniProt O60885); assay: Selectivity interaction (Kinase panel (DSF assay)) EUB0001558a BRD4
[2] = target: T1, Serine/threonine-protein kinase RIO1 (Homo sapiens) (UniProt Q9BRS2); assay: Selectivity interaction (Kinase panel (DSF assay)) EUB0001558a RIOK1
T1 sequence (whole entry): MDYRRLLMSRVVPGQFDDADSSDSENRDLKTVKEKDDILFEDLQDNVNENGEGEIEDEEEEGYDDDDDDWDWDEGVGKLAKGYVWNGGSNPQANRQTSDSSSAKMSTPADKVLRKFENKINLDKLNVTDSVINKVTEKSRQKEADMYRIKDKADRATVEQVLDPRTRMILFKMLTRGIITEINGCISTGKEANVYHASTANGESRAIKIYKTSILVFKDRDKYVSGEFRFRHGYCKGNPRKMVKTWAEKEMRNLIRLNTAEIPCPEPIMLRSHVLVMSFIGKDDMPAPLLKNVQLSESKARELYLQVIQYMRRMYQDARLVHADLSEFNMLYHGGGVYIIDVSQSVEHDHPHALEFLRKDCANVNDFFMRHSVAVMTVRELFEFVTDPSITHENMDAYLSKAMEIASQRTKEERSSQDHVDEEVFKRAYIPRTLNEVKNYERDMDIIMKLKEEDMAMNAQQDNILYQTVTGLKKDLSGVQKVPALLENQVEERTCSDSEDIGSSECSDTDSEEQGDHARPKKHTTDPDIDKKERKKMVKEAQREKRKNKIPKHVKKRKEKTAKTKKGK

PXR (NR1I2) = PXR (NR1I2) (Homo sapiens, UniProt O75469); assay: Selectivity interaction (Panel of kinases, GPCRs, ion channels and transporters (enzymatic assay)) EUB0000266bCl NR1I2
[3] = target: Beta-2 adrenergic receptor (Homo sapiens, UniProt P07550); assay: Selectivity interaction (Panel of kinases, GPCRs, ion channels and transporters (enzymatic assay)) EUB0000266bCl ADRB2
[4] = target: Tyrosine-protein kinase Fer (Homo sapiens) (UniProt P16591); assay: Selectivity interaction (Kinase panel (KiNativ target engagement assay in Jurkat cells)) EUB0001635a FER; assay type: cell-based; settings: Selectivity number of off-targets 0.0, Selectivity number of targets 233.0, Source Knowledge https://www.sciencedirect.com/science/article/pii/S2451945619300674?via%3Dihub, at 1 µM
[5] = target: Calcium/calmodulin-dependent protein kinase type 1 (Homo sapiens) (UniProt Q14012); assay: Selectivity interaction (KinomeScan (DiscoverX)) EUB0000666a CAMK1; settings: at 10 µM
[6] = target: T2, Interleukin-1 receptor-associated kinase 3 (Homo sapiens) (UniProt Q9Y616); assay: Selectivity interaction (KinomeScan (DiscoverX)) EUB0001049a IRAK3; settings: at 1 µM
T2 sequence (whole entry): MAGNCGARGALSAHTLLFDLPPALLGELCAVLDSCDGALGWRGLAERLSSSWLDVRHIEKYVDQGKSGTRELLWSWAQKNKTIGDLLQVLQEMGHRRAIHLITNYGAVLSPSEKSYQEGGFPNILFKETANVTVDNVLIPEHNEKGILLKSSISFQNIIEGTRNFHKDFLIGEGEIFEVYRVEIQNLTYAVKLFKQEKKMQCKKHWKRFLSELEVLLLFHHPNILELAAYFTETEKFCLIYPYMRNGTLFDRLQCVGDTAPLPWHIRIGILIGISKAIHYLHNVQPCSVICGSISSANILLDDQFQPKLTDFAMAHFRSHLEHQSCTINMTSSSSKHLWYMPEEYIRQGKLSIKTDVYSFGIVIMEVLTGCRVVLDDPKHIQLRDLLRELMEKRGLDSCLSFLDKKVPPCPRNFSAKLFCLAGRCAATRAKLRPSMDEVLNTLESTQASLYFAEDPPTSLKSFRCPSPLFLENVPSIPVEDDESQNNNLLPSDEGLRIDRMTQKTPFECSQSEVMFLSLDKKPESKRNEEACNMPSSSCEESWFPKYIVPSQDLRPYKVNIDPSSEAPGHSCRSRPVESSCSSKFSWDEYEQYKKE

[7] = target: T3, Inhibitor of nuclear factor kappa-B kinase subunit epsilon (Homo sapiens) (UniProt Q14164); assay: Selectivity interaction (KinomeScan (DiscoverX)) EUB0001049a IKBKE; settings: at 1 µM
T3 sequence (whole entry): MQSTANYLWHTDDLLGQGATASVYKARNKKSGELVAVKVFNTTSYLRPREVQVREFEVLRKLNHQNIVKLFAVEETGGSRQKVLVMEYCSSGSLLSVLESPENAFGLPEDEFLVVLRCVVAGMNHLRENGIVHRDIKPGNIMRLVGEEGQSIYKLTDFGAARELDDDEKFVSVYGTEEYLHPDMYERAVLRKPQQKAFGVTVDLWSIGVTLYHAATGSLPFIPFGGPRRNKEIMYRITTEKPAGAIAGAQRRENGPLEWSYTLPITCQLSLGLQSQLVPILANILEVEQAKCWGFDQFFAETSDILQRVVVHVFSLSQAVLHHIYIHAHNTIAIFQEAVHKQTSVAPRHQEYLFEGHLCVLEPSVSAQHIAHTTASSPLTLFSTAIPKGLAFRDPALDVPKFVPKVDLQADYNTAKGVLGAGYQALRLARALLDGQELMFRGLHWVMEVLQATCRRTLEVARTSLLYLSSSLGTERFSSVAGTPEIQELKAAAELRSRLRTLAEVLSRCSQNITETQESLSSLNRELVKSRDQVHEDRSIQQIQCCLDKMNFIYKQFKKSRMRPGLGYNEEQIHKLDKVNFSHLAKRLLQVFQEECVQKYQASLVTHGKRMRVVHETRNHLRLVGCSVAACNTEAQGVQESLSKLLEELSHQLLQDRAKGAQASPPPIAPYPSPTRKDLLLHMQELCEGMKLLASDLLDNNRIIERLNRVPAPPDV

[8] = target: Dual specificity protein kinase CLK4 (Homo sapiens, UniProt Q9HAZ1); assay: Selectivity interaction (KinomeScan (DiscoverX)) EUB0001049a CLK4; settings: at 1 µM
Sequence of Dual specificity protein kinase CLK4 (Q9HAZ1 whole entry, looked up): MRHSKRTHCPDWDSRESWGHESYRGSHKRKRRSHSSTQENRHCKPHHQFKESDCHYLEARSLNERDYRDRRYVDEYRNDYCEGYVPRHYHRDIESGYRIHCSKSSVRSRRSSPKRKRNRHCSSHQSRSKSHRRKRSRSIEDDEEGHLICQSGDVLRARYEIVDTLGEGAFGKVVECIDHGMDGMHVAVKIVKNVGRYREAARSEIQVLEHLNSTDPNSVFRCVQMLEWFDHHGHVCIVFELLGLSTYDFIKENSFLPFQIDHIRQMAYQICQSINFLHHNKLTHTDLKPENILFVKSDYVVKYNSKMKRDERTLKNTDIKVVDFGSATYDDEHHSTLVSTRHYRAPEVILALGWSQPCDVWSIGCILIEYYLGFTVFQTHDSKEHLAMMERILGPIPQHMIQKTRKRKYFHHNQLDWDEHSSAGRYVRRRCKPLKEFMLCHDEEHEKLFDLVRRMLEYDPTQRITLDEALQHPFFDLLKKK

Sequence of Beta-2 adrenergic receptor (P07550 whole entry, looked up): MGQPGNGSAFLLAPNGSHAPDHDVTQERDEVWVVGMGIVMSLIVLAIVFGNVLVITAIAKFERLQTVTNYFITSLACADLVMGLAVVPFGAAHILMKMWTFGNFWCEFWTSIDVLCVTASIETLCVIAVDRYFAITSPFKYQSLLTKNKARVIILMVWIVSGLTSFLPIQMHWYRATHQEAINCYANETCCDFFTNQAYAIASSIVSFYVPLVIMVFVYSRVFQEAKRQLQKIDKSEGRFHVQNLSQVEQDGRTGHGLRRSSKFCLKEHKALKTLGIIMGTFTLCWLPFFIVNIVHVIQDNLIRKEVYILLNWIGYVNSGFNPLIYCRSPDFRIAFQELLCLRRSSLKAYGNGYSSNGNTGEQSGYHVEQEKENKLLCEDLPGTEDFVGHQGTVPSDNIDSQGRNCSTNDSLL
Sequence of PXR (NR1I2) (O75469 whole entry): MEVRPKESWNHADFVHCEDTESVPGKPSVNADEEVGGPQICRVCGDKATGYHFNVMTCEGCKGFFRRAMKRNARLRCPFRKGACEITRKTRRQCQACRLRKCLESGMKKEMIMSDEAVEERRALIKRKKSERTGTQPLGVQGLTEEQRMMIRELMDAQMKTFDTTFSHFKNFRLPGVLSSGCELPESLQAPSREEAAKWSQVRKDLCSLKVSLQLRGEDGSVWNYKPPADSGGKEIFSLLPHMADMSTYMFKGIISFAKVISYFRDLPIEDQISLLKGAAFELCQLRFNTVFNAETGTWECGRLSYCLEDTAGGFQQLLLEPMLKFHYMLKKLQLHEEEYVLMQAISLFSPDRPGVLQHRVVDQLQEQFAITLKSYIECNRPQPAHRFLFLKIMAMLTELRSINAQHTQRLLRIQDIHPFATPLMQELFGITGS
Sequence of Calcium/calmodulin-dependent protein kinase type 1 (Homo sapiens) (Q14012 whole entry, looked up): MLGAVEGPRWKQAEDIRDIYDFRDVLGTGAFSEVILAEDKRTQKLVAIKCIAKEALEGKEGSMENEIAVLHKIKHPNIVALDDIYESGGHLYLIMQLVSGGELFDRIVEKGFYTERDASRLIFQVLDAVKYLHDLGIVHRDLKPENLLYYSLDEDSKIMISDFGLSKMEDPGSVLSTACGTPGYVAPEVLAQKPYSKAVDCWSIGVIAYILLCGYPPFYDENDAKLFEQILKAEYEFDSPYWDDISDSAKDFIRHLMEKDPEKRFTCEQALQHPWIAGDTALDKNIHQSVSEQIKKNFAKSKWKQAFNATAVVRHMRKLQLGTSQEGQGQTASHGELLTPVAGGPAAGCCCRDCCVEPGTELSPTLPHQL
Sequence of Tyrosine-protein kinase Fer (Homo sapiens) (P16591 whole entry, looked up): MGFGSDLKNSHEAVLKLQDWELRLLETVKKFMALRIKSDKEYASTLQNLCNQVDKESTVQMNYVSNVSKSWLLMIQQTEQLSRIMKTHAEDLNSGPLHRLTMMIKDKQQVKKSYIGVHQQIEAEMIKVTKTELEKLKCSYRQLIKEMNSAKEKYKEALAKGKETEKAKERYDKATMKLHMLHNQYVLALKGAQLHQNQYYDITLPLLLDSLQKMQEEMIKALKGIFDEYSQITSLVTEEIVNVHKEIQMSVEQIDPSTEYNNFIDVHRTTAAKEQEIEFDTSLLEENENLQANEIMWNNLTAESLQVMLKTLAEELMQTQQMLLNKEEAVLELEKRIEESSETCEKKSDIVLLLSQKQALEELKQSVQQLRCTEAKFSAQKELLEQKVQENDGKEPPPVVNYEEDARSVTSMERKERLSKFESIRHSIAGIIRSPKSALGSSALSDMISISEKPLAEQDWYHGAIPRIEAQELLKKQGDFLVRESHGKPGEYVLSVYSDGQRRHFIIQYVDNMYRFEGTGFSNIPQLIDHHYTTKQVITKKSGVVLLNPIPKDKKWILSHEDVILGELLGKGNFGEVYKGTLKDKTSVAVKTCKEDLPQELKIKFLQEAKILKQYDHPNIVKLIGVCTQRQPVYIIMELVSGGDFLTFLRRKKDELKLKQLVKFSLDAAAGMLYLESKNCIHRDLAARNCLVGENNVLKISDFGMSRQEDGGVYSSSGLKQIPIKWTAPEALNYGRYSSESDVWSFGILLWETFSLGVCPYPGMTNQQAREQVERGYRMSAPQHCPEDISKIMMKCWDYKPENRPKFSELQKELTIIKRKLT

CC(C)(O)[C@H](F)CN1Cc2cc(NC(=O)c3cnn4cccnc34)c(N3CCOCC3)cc2C1=O
dTM [1]: 0.4 K
dTM [2]: -0.3 K

CCn1c(-c2nc3cc(C(=O)N4CCCC(N)C4)ccc3n2C)cc2ccccc21 (centres undefined)
XC50 (PXR (NR1I2)): > 50.1 µM
pXC50 [3]: < 4.5 M

C=CC(=O)Nc1ccc(C(=O)Nc2[nH]nc3c2CN(C(=O)N[C@H](CN(C)C)c2ccccc2)C3(C)C)cc1
% of engagement [4]: -6.9%

O=C(NOC[C@H](O)CO)c1ccc(F)c(F)c1Nc1ccc(I)cc1F
% of control [5]: 98%

COc1cc(Nc2nc(C)cc(-c3cnn4nc(OC)ccc34)n2)cc(C(F)(F)F)c1
% of control [6]: 89%
% of control [7]: 83%
% of control [8]: 98%
